Data as given in patent US20240398805A1, “QUINAZOLINE DERIVED COMPOUNDS AS EGFR INHIBITORS AND THEIR USES THEREOF” (ACCUTAR BIOTECHNOLOGY INC., priority 2021, published 2024).

Assays:
Type in all cases: cell-based
[1] = tested on: HCC827-ASV cells (human EGFR exon 20 insertion mutant A769_D770insASV); test: Cell growth inhibition (CellTiter-Glo, 3 days) in HCC827-ASV; settings: 72 h, 3 days after administration
Summary of the method: (§1)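 Growth inhibition used a CellTiter-Glo luminescence read-out after 3 days of compound exposure at various concentrations. Cells were plated the day before at 5000/well in RPMI plus 10% FBS. The lines are HCC827 transduced by lentivirus with codon-optimized EGFR ASV or ERBB2 YVMA exon 20 insertions.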

HCC827 cells = test: Cell growth inhibition (CellTiter-Glo, 3 days) in HCC827; settings: Homo sapiens, 72 h, 3 days after administration
Summary of the method: (§2)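 HCC827 cells were plated at 5000 cells/well in RPMI with 10% FBS, and A431 cells at the same density in DMEM with 10% FBS. After overnight attachment, compounds were added at various concentrations. Luminescence was recorded after plates were equilibrated to room temperature and incubated 10 min with reagent.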

A431 cells = test: Cell growth inhibition (CellTiter-Glo, 3 days) in A431; settings: Homo sapiens, A-431, 72 h, 3 days after administration
Summary of the method: as §2

[2] = tested on: HCC827-SVD cells (human EGFR exon 20 insertion mutant D770_N771 insSVD); test: Cell growth inhibition (CellTiter-Glo, 3 days) in HCC827-SVD; settings: 72 h, 3 days after administration
Summary of the method: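 HCC827 cells carrying lentiviral codon-optimized EGFR D770_N771 insSVD, with endogenous EGFR knocked out by CRISPR (single clone), seeded at 5000 cells/well in RPMI with 10% FBS. Viability read by CellTiter-Glo luminescence.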

[3] = tested on: HCC827-YVMA cells (human ERBB2 exon20 insertion mutant A775_G776ins YVMA); test: Cell growth inhibition (CellTiter-Glo, 3 days) in HCC827-YVMA; settings: 72 h, 3 days after administration
Summary of the method: as §1

In the case of `C=CC(=O)N1CCC(Nc2cc3c(Nc4ccc(Oc5ccnc(N6CCC[C@@H](N)C6)c5)cc4F)ncnc3cc2OC)CC1` [Example 217, (R)-1-(4-((4-((4-((2-(3-aminopiperidin-1-yl)pyridin-4-yl)oxy)-2-fluorophenyl)amino)-7-methoxyquinazolin-6-yl)amino)piperidin-1-yl)prop-2-en-1-one], the GI50 [1] is reported as 0.6 to 1 µM, the GI50 (HCC827 cells) is reported as no less than 1 µM and the GI50 (A431 cells) is reported as no less than 1 µM. The GI50 [2] was 0.3 to 0.6 µM and the GI50 [3] was 0.6 to 1 µM.
Work on `C=CC(=O)N1CCC(Nc2cc3c(Nc4ccc(Oc5ccnc(N6CCC(F)(F)CC6)c5)cc4F)ncnc3cc2OC)CC1` [Example 218, 1-(4-((4-((4-((2-(4,4-difluoropiperidin-1-yl)pyridin-4-yl)oxy)-2-fluorophenyl)amino)-7-methoxyquinazolin-6-yl)amino)piperidin-1-yl)prop-2-en-1-one] yielded a GI50 [1] of 0.03 to 0.06 µM, a GI50 (HCC827 cells) of 0.1 to 0.3 µM and a GI50 (A431 cells) of no less than 1 µM. It also gave a GI50 [2] of 0.03 to 0.06 µM and a GI50 [3] of 0.03 to 0.06 µM.
With `C=CC(=O)N1CCC(Nc2cc3c(Nc4ccc(Oc5ccnc(N6CCCC(F)(F)C6)c5)cc4F)ncnc3cc2OC)CC1` [Example 219, 1-(4-((4-((4-((2-(3,3-difluoropiperidin-1-yl)pyridin-4-yl)oxy)-2-fluorophenyl)amino)-7-methoxyquinazolin-6-yl)amino)piperidin-1-yl)prop-2-en-1-one] the GI50 [1] was less than 0.03 µM, the GI50 (HCC827 cells) was 0.1 to 0.3 µM and the GI50 (A431 cells) was 0.3 to 0.6 µM. The GI50 [2] was less than 0.03 µM and the GI50 [3] was less than 0.03 µM.
`C=CC(=O)N1CCC(Nc2cc3c(Nc4ccc(Oc5ccnc(N6CCCC(C)(O)C6)c5)cc4F)ncnc3cc2OC)CC1` (stereo not drawn) [Example 220, 1-(4-((4-((2-fluoro-4-((2-(3-hydroxy-3-methylpiperidin-1-yl)pyridin-4-yl)oxy)phenyl)amino)-7-methoxyquinazolin-6-yl)amino)piperidin-1-yl)prop-2-en-1-one] showed a GI50 [1] of less than 0.03 µM, a GI50 (HCC827 cells) of 0.1 to 0.3 µM and a GI50 (A431 cells) of 0.6 to 1 µM. The GI50 [2] was less than 0.03 µM and the GI50 [3] was less than 0.03 µM.
For `C=CC(=O)N1CCC(Nc2cc3c(Nc4ccc(Oc5ccnc(N6CCCC(C#N)C6)c5)cc4F)ncnc3cc2OC)CC1` (stereo not drawn) [Example 221, 1-(4-(4-((6-((1-acryloylpiperidin-4-yl)amino)-7-methoxyquinazolin-4-yl)amino)-3-fluorophenoxy)pyridin-2-yl)piperidine-3-carbonitrile], the GI50 [1] was less than 0.03 µM, the GI50 (HCC827 cells) was 0.1 to 0.3 µM and the GI50 (A431 cells) was 0.1 to 0.3 µM. The GI50 [2] was less than 0.03 µM and the GI50 [3] was less than 0.03 µM.
In the case of `C=CC(=O)N1CCC(Nc2cc3c(Nc4ccc(Oc5ccnc(N6CCC[C@H](C)C6)c5)cc4F)ncnc3cc2OC)CC1` [Example 222, (S)-1-(4-((4-((2-fluoro-4-((2-(3-methylpiperidin-1-yl)pyridin-4-yl)oxy)phenyl)amino)-7-methoxyquinazolin-6-yl)amino)piperidin-1-yl)prop-2-en-1-one], the GI50 [1] is reported as less than 0.03 µM, the GI50 (HCC827 cells) is reported as 0.06 to 0.1 µM and the GI50 (A431 cells) is reported as 0.6 to 1 µM. The GI50 [2] was less than 0.03 µM and the GI50 [3] was less than 0.03 µM.
In the case of `C=CC(=O)N1CCC(Nc2cc3c(Nc4ccc(Oc5ccnc(N6CCN(C)C(=O)C6)c5)cc4F)ncnc3cc2OC)CC1` [Example 223, 4-(4-(4-((6-((1-acryloylpiperidin-4-yl)amino)-7-methoxyquinazolin-4-yl)amino)-3-fluorophenoxy)pyridin-2-yl)-1-methylpiperazin-2-one], the GI50 [1] is reported as 0.1 to 0.3 µM, the GI50 (HCC827 cells) is reported as 0.3 to 0.6 µM and the GI50 (A431 cells) is reported as 0.6 to 1 µM. The GI50 [2] was 0.1 to 0.3 µM and the GI50 [3] was 0.1 to 0.3 µM.
`C=CC(=O)N1CCC(Nc2cc3c(Nc4ccc(Oc5ccnc(N6CCN[C@H](C)C6)c5)cc4F)ncnc3cc2OC)CC1` [Example 224, (R)-1-(4-((4-((2-fluoro-4-((2-(3-methylpiperazin-1-yl)pyridin-4-yl)oxy)phenyl)amino)-7-methoxyquinazolin-6-yl)amino)piperidin-1-yl)prop-2-en-1-one] gave a GI50 [1] of 0.6 to 1 µM, a GI50 (HCC827 cells) of no less than 1 µM and a GI50 (A431 cells) of no less than 1 µM. The GI50 [2] was 0.3 to 0.6 µM and the GI50 [3] was 0.6 to 1 µM.
`C=CC(=O)N1CCC(Nc2cc3c(Nc4ccc(Oc5ccnc(N6CCN[C@@H](C)C6)c5)cc4F)ncnc3cc2OC)CC1` [Example 225, (S)-1-(4-((4-((2-fluoro-4-((2-(3-methylpiperazin-1-yl)pyridin-4-yl)oxy)phenyl)amino)-7-methoxyquinazolin-6-yl)amino)piperidin-1-yl)prop-2-en-1-one] showed a GI50 [1] of 0.3 to 0.6 µM, a GI50 (HCC827 cells) of no less than 1 µM and a GI50 (A431 cells) of no less than 1 µM. It also gave a GI50 [2] of 0.3 to 0.6 µM and a GI50 [3] of 0.3 to 0.6 µM.
`C=CC(=O)N1CCC(Nc2cc3c(Nc4ccc(Oc5ccnc(N6CCNC(C)(C)C6)c5)cc4F)ncnc3cc2OC)CC1` [Example 226, 1-(4-((4-((4-((2-(3,3-dimethylpiperazin-1-yl)pyridin-4-yl)oxy)-2-fluorophenyl)amino)-7-methoxyquinazolin-6-yl)amino)piperidin-1-yl)prop-2-en-1-one] gave a GI50 [1] of no less than 1 µM, a GI50 (HCC827 cells) of no less than 1 µM and a GI50 (A431 cells) of no less than 1 µM. The GI50 [2] was 0.3 to 0.6 µM and the GI50 [3] was no less than 1 µM.
`C=CC(=O)N1CCC(Nc2cc3c(Nc4ccc(Oc5ccnc(N6CCC[C@@H](OC)C6)c5)c(Cl)c4)ncnc3cc2OC)CC1` [Example 227, (R)-1-(4-((4-((3-chloro-4-((2-(3-methoxypiperidin-1-yl)pyridin-4-yl)oxy)phenyl)amino)-7-methoxyquinazolin-6-yl)amino)piperidin-1-yl)prop-2-en-1-one] was tested, and the GI50 [1] was 0.06 to 0.1 µM, the GI50 (HCC827 cells) was 0.1 to 0.3 µM and the GI50 (A431 cells) was 0.3 to 0.6 µM. For the same compound, the GI50 [2] was 0.03 to 0.06 µM and the GI50 [3] was 0.06 to 0.1 µM.
In the case of `C=CC(=O)N1CCC(Nc2cc3c(Nc4ccc(Oc5ccnc(N6CCN(C)CC6)c5)c(Cl)c4)ncnc3cc2OC)CC1` [Example 228, 1-(4-((4-((3-chloro-4-((2-(4-methylpiperazin-1-yl)pyridin-4-yl)oxy)phenyl)amino)-7-methoxyquinazolin-6-yl)amino)piperidin-1-yl)prop-2-en-1-one], the GI50 [1] is reported as 0.06 to 0.1 µM, the GI50 (HCC827 cells) is reported as 0.3 to 0.6 µM and the GI50 (A431 cells) is reported as no less than 1 µM. It also gave a GI50 [2] of 0.1 to 0.3 µM and a GI50 [3] of 0.06 to 0.1 µM.
In the case of `C=CC(=O)N1CCC(Nc2cc3c(Nc4ccc(Oc5ccnc(N6CCC(O)CC6)c5)c(Cl)c4)ncnc3cc2OC)CC1` [Example 229, 1-(4-((4-((3-chloro-4-((2-(4-hydroxypiperidin-1-yl)pyridin-4-yl)oxy)phenyl)amino)-7-methoxyquinazolin-6-yl)amino)piperidin-1-yl)prop-2-en-1-one], the GI50 [1] is reported as 0.1 to 0.3 µM, the GI50 (HCC827 cells) is reported as 0.1 to 0.3 µM and the GI50 (A431 cells) is reported as 0.3 to 0.6 µM. The GI50 [2] was 0.06 to 0.1 µM and the GI50 [3] was 0.1 to 0.3 µM.
For `C=CC(=O)N1CCC(Nc2cc3c(Nc4ccc(Oc5ccnc(N6CCC[C@@H](OC)C6)c5)cc4)ncnc3cc2OC)CC1` [Example 230, (R)-1-(4-((7-methoxy-4-((4-((2-(3-methoxypiperidin-1-yl)pyridin-4-yl)oxy)phenyl)amino)quinazolin-6-yl)amino)piperidin-1-yl)prop-2-en-1-one], the GI50 [1] was less than 0.03 µM, the GI50 (HCC827 cells) was 0.3 to 0.6 µM and the GI50 (A431 cells) was no less than 1 µM. For the same compound, the GI50 [2] was 0.03 to 0.06 µM and the GI50 [3] was less than 0.03 µM.
For `C=CC(=O)N1CCC(Nc2cc3c(Nc4ccc(Oc5ccnc(N6CCN(C)CC6)c5)cc4)ncnc3cc2OC)CC1` [Example 231, 1-(4-((7-methoxy-4-((4-((2-(4-methylpiperazin-1-yl)pyridin-4-yl)oxy)phenyl)amino)quinazolin-6-yl)amino)piperidin-1-yl)prop-2-en-1-one], the GI50 [1] was 0.1 to 0.3 µM, the GI50 (HCC827 cells) was no less than 1 µM and the GI50 (A431 cells) was no less than 1 µM. The GI50 [2] was 0.3 to 0.6 µM and the GI50 [3] was 0.1 to 0.3 µM.
